Measurements as given in patent US12612424B2, “HPK1 inhibitors and uses thereof” (Regor Pharmaceuticals, Inc., priority 2019, dated 2026).

Test system: Human Pan T Cell (IL-2 release)
Test: IL2 released by human pan T cell upon anti-CD3/anti-CD28 stimulation (ELISA)
Format: cell-based
Conditions: human pan T cells; for EC (2-fold response) / maximal fold induction / EC50: Homo sapiens, T-cell; for EC (2-fold response) / maximal fold induction: 48 h; for EC (2-fold response) / EC2x (nM): concentration of compound that gives 200% IL-2 response (2 folds) over DMSO control; for maximal fold induction: response of IL-2 over DMSO control, anti-CD3/anti-CD28, 48 hours, ELISA, read-out: IL-2 Max Fold Response; for EC50: IL-2 response, calculated with GraphPad Prism
Method in brief: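 Primary human pan-T cells, negatively isolated from PBMC, plated at 100,000 cells/well and stimulated with immobilized anti-CD3 plus soluble anti-CD28 in presence of test compound at varying concentrations. After 2 days, secreted IL-2 in supernatant quantified by ELISA.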

Structure (SMILES) | EC50 | EC (2-fold response) | maximal fold induction | EC2x (nM)
COc1cc2c(cc1Nc1ncc(Cl)c(N3CC(CC(=O)O)c4ccccc43)n1)CN(C)CC2 (stereo not drawn) [Example 128] | 100 to 500 nM | 0.1 to 0.5 µM | > 2 | 
COc1cc2c(cc1Nc1ncc(Cl)c(-n3cc(CC(=O)O)c4ccccc43)n1)CN(C)CC2 [Example 129] | 100 to 500 nM | 0.1 to 0.5 µM | > 2 | 
COc1cc2c(cc1Nc1ncc(Cl)c(-n3cc(CC(=O)OC(C)C)c4ccccc43)n1)CN(C)CC2 [Example 130, Isopropyl 2-(1-(5-chloro-2-((6-methoxy-2-methyl-1,2,3,4-tetrahydroisoquinolin-7-yl)amino)pyrimidin-4-yl)-1H-indol-3-yl)acetate] |  |  | < 2 | 
COc1cc2c(cc1Nc1ncc(Cl)c(-n3cc(CC(N)=O)c4ccccc43)n1)CN(C)CC2 [Example 133] | > 1000 nM |  | < 2 | 
COc1cc2c(cc1Nc1ncc(Cl)c(-n3cc(CC#N)c4ccccc43)n1)CN(C)CC2 [Example 134] | > 1000 nM |  | < 2 | 
COc1cc2c(cc1Nc1ncc(Cl)c(-n3cc(Cc4nn[nH]n4)c4ccccc43)n1)CN(C)CC2 [Example 135, N-(4-(3-((2H-tetrazol-5-yl)methyl)-1H-indol-1-yl)-5-chloropyrimidin-2-yl)-6-methoxy-2-methyl-1,2,3,4-tetrahydroisoquinolin-7-amine] | > 1000 nM |  | < 2 | 
CNC(=O)Cc1cn(-c2nc(Nc3cc4c(cc3OC)CCN(C)C4)ncc2Cl)c2ccccc12 [Example 136] | 500 to 1000 nM |  | < 2 | 
COc1cc2c(cc1Nc1ncc(Cl)c(-n3cc(CC(=O)NCC#N)c4ccccc43)n1)CN(C)CC2 [Example 137] | 500 to 1000 nM |  | < 2 | 
COc1cc2c(cc1Nc1ncc(Cl)c(-n3cc(CC(=O)O)c4cc(F)ccc43)n1)CN(C)CC2 [Example 138] | 100 to 500 nM | 0.1 to 0.5 µM | > 2 | 
COc1cc2c(cc1Nc1ncc(Cl)c(-n3cc(CC(=O)O)c4cc(F)c(F)cc43)n1)CN(C)CC2 [Example 140] | 100 to 500 nM | 0.1 to 0.5 µM | > 2 | 
COc1cc2c(cc1Nc1ncc(Cl)c(-n3nc(CC(=O)O)c4ccccc43)n1)CN(C)CC2 [Example 141] | > 1000 nM |  | > 2 | ++ (“++”, for higher values than “+++” but less than or equal to 1 μM)
COc1cc2c(cc1Nc1ncc(Cl)c(-n3cc(C(C)C(=O)O)c4ccccc43)n1)CN(C)CC2 (stereo not drawn) [Example 142] | 100 to 500 nM |  | < 2 | 
COC(=O)CC1(C)CN(c2nc(Nc3cc4c(cc3OC)CCN(C)C4)ncc2Cl)c2ccccc21 (stereo not drawn) [Example 145] |  |  | < 2 | 
CCOC(=O)CC1(C)CN(c2nc(Nc3cc4c(cc3OC)CCN(C)C4)ncc2Cl)c2ccccc21 (stereo not drawn) [Example 149] |  |  | < 2 | 
COc1cc2c(cc1Nc1ncc(Cl)c(N3CC(C)(CC(=O)O)c4ccccc43)n1)CNCC2 (stereo not drawn) [Example 160, 2-(1-(5-Chloro-2-((6-methoxy-1,2,3,4-tetrahydroisoquinolin-7-yl)amino)pyrimidin-4-yl)-3-methylindolin-3-yl)acetic acid methanesulfonic acid] | ≤ 100 nM | ≤ 0.1 µM | > 2 | 
COc1cc2c(cc1Nc1ncc(Cl)c(-c3cn(CC(=O)O)c4ccccc34)n1)CN(C)CC2 [Example 161] | > 1000 nM |  | > 2 | + (“+”, for greater than 1 μM)
COc1cc2c(cc1Nc1ncc(Cl)c(-c3nn(CC(=O)O)c4ccccc34)n1)CN(C)CC2 [Example 162, 2-(3-(5-Chloro-2-((6-methoxy-2-methyl-1,2,3,4-tetrahydroisoquinolin-7-yl)amino)pyrimidin-4-yl)-1H-indazol-1-yl)acetic acid] |  |  | < 2 | 
COc1cc2c(cc1Nc1nccc(N3CC(C(=O)O)c4ccccc43)n1)CN(C)CC2 (stereo not drawn) [Example 163, 1-(2-((6-Methoxy-2-methyl-1,2,3,4-tetrahydroisoquinolin-7-yl)amino)pyrimidin-4-yl)indoline-3-carboxylic acid] | > 1000 nM |  | > 2 | + (“+”, for greater than 1 μM)
COc1cc2c(cc1Nc1ncc3cc(C#N)n(-c4ccccc4)c3n1)CN(C)CC2 [Example 164, 2-((6-Methoxy-2-methyl-1,2,3,4-tetrahydroisoquinolin-7-yl)amino)-7-phenyl-7H-pyrrolo[2,3-d]pyrimidine-6-carbonitrile] | ≤ 100 nM |  | < 2 | 

Further lines, with some results ahead:

EC50 | Structure (SMILES) | EC (2-fold response) | maximal fold induction | EC2x (nM)
≤ 100 nM | COc1cc2c(cc1Nc1ncc(Cl)c(-n3cc(CC(=O)O)c4ccc(F)cc43)n1)CN(C)CC2 [Example 139] | ≤ 0.1 µM | > 2 | 
≤ 100 nM | COc1cc2c(cc1Nc1ncc(Cl)c(N3CC(C)(CC(=O)O)c4ccccc43)n1)CN(C)CC2 (stereo not drawn) [Example 146] | ≤ 0.1 µM | > 2 | 
≤ 100 nM | COc1cc2c(cc1Nc1ncc(Cl)c(N3CC(C)(CC(=O)O)c4cc(F)ccc43)n1)CN(C)CC2 (stereo not drawn) [Example 150, 2-(1-(5-Chloro-2-((6-methoxy-2-methyl-1,2,3,4-tetrahydroisoquinolin-7-yl)amino)pyrimidin-4-yl)-5-fluoro-3-methylindolin-3-yl)acetic acid] | ≤ 0.1 µM | > 2 | 
≤ 100 nM | COc1cc2c(cc1Nc1ncc(Cl)c(N3CC(C)(CC(=O)O)c4ccc(F)cc43)n1)CN(C)CC2 (stereo not drawn) [Example 151] | ≤ 0.1 µM | > 2 | 
≤ 100 nM | COc1cc2c(cc1Nc1ncc(Cl)c(N3CC(C)(CC(=O)O)c4cc(F)c(F)cc43)n1)CN(C)CC2 (stereo not drawn) [Example 154] | ≤ 0.1 µM | > 2 | 
≤ 100 nM | CN1CCc2cc(F)c(Nc3ncc(Cl)c(N4CC(C)(CC(=O)O)c5ccccc54)n3)cc2C1 (stereo not drawn) [Example 156] | ≤ 0.1 µM | > 2 | 
≤ 100 nM | CCN1CCc2cc(OC)c(Nc3ncc(Cl)c(N4CC(C)(CC(=O)O)c5ccccc54)n3)cc2C1 (stereo not drawn) [Example 157, 2-(1-(5-Chloro-2-((2-ethyl-6-methoxy-1,2,3,4-tetrahydroisoquinolin-7-yl)amino)pyrimidin-4-yl)-3-methylindolin-3-yl)acetic acid] | ≤ 0.1 µM | > 2 | 
≤ 100 nM | COc1cc2c(cc1Nc1ncc(Cl)c(N3CC(C)(CC(=O)O)c4ccccc43)n1)CN(C(C)C)CC2 (stereo not drawn) [Example 158, 2-(1-(5-Chloro-2-((2-isopropyl-6-methoxy-1,2,3,4-tetrahydroisoquinolin-7-yl)amino)pyrimidin-4-yl)-3-methylindolin-3-yl)acetic acid] | ≤ 0.1 µM | > 2 | 
≤ 100 nM | COc1cc2c(cc1Nc1ncc(Cl)c(N3CC(C)(CC(=O)O)c4ccccc43)n1)CN(C)C2 (stereo not drawn) [Example 159, 2-(1-(5-Chloro-2-((6-methoxy-2-methylisoindolin-5-yl)amino)pyrimidin-4-yl)-3-methylindolin-3-yl)acetic acid] | ≤ 0.1 µM | > 2 | 
